Series [1] concerns stress ulcer. In words: WIS: Restraint and Water Immersion Stress-Induced Ulcer Inhibition Test. The series is classed as in vivo, rat (male Crj:SD or Slc:SD). The following applies: 100 mg/kg oral, rats, water immersion stress 7 hours. A digest of the protocol: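 Fasted male SD rats (6–7 weeks, 5–8 per group) received compound orally at 100 mg/kg in 0.3% CMC-Na or 0.05% Tween 80; 10 min later, restraint with water immersion (21 °C) for 7 h. Summed glandular erosion length gave the ulcer index; inhibition (%) versus vehicle controls.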

Series [2] concerns gastric mucosa. The series is described as follows: PD: Gastric Mucosal Integrity Test (gastric mucosal potential difference). The series is classed as in vivo, rat (male Crj:SD). Further details: key: 5: Same as the control with no recognizable damage at all.; 4: Though a slight PD-decreasing tendency suggesting a slight possibility of mucosal damage is found, there is no problem.; 3: Though a weak decrease in PD and a possibility of a weak mucosal damage is recognized, there is no substantial problem.; 2: Medium degree of decrease in PD is found and a mucosal damage is recognized.; 1: Heavy degree of decrease in PD is found and a remarkable mucosal damage is recognized. The following applies: 100 mg/kg into chamber, rats, 60 minutes. How it is done:
PD: Gastric Mucosal Integrity Test
In this case, since the sample compound has a necrotizing effect, it is inappropriate as an anti-ulcer medicament.
Therefore, the gastric mucosal potential difference (PD), which reflects the integrity of the gastric mucosa, is measured so as to confirm that the sample compound has no damaging effect on gastric mucosa, which is toxicity at gastric mucosal level.
Male Crj:SD rats (7 to 8-week-old) were fasted overnight, but allowed free access to water, and then, under urethane anesthesia (1.25 g/kg, i.p.), fixed to a cork board on its back. The abdomen of each rat was incised, and a small incision was made in the forestomach. Then, the inside of the stomach was washed with physiological saline heated at 37° C. From the forestomach, along the greater curvature thereof, the stomach was incised without damaging blood vessels. After the height of the cork board was adjusted on a jack, the stomach was mounted on ex vivo chamber. The area of the gastric mucosa exposed to the inside of this chamber was 2.5 cm^2. The inside of the chamber was perfused with physiological saline warmed at 37° C. by micro tube pump. By using an agar bridge containing 3M KCl, the potential difference between the chamber and the abdominal cavity was measured by a PD meter. Here, the rectal temperature was measured to control the body temperature during the experiment. After the PD was sufficiently stabilized, the perfusate was stopped and then 100 mg/10 ml/kg of the sample compound dissolved or suspended in an aqueous solution of 0.5% sodium carboxymethyl cellulose or 0.05% Tween 80 was administered into the chamber, while PD was recorded for 60 minutes. To a control, the vehicle was administered.
The change in PD during 60 minutes after the administration of 100 mg/kg of the sample compound was collectively studied and, with reference to the positive control, classified into 5 levels as follows:
5: Same as the control with no recognizable damage at all.
3: Though a weak decrease in PD and a possibility of a weak mucosal damage is recognized, there is no substantial problem.
2: Medium degree of decrease in PD is found and a mucosal damage is recognized.
1: Heavy degree of decrease in PD is found and a remarkable mucosal damage is recognized.

Consider `CC(C)=CCOc1ccc(C(=O)NCCN2CCOCC2)cc1OCC=C(C)C` [Example 35], for which the “WIS: ulcer formation inhibitory rate” value in series [1] worked out at 48%. In addition, in series [2], the “PD: change in gastric mucosal potential difference, 5 levels” value is 5.
Taken in the same sequence, the figures for `CC(C)=CCC/C(C)=C/COc1ccc(C(=O)NCCN2CCOCC2)cc1` [Example 31] were 54% and 3.
Taken in the same sequence, the figures for `CC(C)=CCOc1ccc(C(=O)NCCN2CCOCC2)cc1` [Example 28] were 64% and 5.

The record behind these values is patent US5814634A, “Alkylenediamine derivative anti-ulcer drug and antibacterial drug” (Shiseido Co. Ltd., priority 1996, dated 1998).
